Test results published in US8026231B2, “Aminothiolester compounds, pharmaceutical and cosmetic compositions containing same and uses thereof” (CNRS, priority 2000, dated 2011).

Tests used:
BAF3-bcl2 H16 cells = assay: Apoptosis induction (DNA fragmentation) in BAF3-bcl2 clone H16, 24 h; format: cell-based, mouse
Method: The BAF3-bcl2 cells correspond to BAF3 cells (mouse lymphocyte cells) tranfected with the bcl2 gene. Among these cells, four lines known as H16, G18, B14 and G21 overexpress the bcl2 gene.
Whereas the BAF3-b0 cells undergo apoptosis (more than 80% of the cells) in the absence of interleukin 3 (IL3) in 16 hours [according to Collins, M. K. L., Marvel, J., Malde, P. & Lopez-Rivas, A., J. Exp. Med. 176, 1043-1051, (1992)], the BAF3-bcl2 cells show no sign of apoptosis in the absence of IL3. They are thus apoptosis-resistant.
The procedure which was used is as follows: • The BAF3-b0 or BAF3-bcl2 cells, cultured in the presence of IL3, were labelled by a method adapted from that disclosed in Wright, S. et al., J. of Cell. Biochem. 48, 344-355, (1992).
10^5 cells/ml were incubated with 4.62 KBq.ml^−1 [^3H]-thymidine for 40 hours at 37° C. After two washes with culture medium, 2.5×10^6 cells were cultured in the presence of the test compound.
After incubating for 24 hours, these cells were recovered by centrifugation at 400×g for 5 minutes and washed 3 times with PBS buffer. The cells recovered in the pellet were lysed in 2 ml of 0.1% Triton X-100, 20 mM EDTA, 5 mM Tris pH 8 and centrifuged at 30 000×g at 4° C. for 30 minutes.
The supernatants were recovered and the pellets dissolved in 0.3 ml of 0.5N NaOH.
Aliquots of the culture medium (1 ml), of the supernatant (0.3 ml) and of the dissolved pellet (0.1 ml) were assayed in a scintillation counter.
The percentage of DNA fragments is calculated in the following way:
The percentage of fragmentation of the DNA is a direct measure of the apoptosis which the cells have undergone.

DU145 cells = assay: Growth of DU145 cells (protein and DNA assay, 72 h); format: cell-based, human; settings: 50% inhibition of cell growth
Method: The cells used correspond to two cell lines: metastatic cells of human prostate cancer (DU145) and murine lymphoid cells transfected with the human bcl2 gene (BAF3 bcl2).
The procedure used for the tests on DU145 is as follows: • 10^5 cells are incubated in the various wells of a microplate in 1 ml of culture medium.
The compounds are added 4 hours after placing the cells in the wells.
After 72 hours, the cells are removed at different times. The DU145 cells are washed twice with PBS and recovered directly with 0.1M sodium chloride.
The effect on the growth of the DU145 cells is measured by protein assay according to the Lowry method (Lowry, O. H., Rosenbrough, N. J., Farr, A. L. and Randall, J. Biol. Chem. 193, 265-275, (1951)) and DNA assay by the Hoechst method (West, D. C., Sattar, A. and Kumar, S., Anal. Biochem. 147, 289-295, (1985)).
The IC50 concentration is the concentration corresponding to a 50% inhibition of cell growth.

CSC(=O)C#CC(C)(C)N(C)C [Example 1, S-methyl 4-dimethyl-amino-4-methyl-2-pentynethioate]
DNA fragmentation (%) (BAF3-bcl2 H16 cells; H16, 1 μM): 2.9%
DNA fragmentation (%) (BAF3-bcl2 H16 cells; H16, 2 μM): 6.3%
DNA fragmentation (%) (BAF3-bcl2 H16 cells; H16, 4 μM): 65.3%
DNA fragmentation (%) (BAF3-bcl2 H16 cells; H16, 8 μM): 94.2%
IC50 (DU145 cells): 5.9 µM
